Target: GABA-A receptor; alpha-1/beta-2/gamma-2 (Rattus norvegicus, UniProt P18508+P62813+P63138)
Assay: Inhibition of rat GABA alpha-1-beta-2-gamma-2 receptor
Format: protein-complex assay

GABA-A receptor; alpha-1/beta-2/gamma-2, sequence (P18508 whole entry): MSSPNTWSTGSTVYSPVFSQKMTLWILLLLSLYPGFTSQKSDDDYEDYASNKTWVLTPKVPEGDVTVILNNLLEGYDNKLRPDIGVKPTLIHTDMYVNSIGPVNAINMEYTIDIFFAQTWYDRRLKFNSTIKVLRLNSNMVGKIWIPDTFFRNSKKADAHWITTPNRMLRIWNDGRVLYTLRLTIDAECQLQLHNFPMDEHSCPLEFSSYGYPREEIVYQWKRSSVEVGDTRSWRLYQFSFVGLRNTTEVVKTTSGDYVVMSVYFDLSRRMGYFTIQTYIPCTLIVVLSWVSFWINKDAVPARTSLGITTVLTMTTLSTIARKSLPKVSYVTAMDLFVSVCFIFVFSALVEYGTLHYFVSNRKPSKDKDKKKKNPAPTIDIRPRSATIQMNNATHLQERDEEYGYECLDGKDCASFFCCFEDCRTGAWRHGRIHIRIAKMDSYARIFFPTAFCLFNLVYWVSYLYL
GABA-A receptor; alpha-1/beta-2/gamma-2, sequence (P62813 whole entry): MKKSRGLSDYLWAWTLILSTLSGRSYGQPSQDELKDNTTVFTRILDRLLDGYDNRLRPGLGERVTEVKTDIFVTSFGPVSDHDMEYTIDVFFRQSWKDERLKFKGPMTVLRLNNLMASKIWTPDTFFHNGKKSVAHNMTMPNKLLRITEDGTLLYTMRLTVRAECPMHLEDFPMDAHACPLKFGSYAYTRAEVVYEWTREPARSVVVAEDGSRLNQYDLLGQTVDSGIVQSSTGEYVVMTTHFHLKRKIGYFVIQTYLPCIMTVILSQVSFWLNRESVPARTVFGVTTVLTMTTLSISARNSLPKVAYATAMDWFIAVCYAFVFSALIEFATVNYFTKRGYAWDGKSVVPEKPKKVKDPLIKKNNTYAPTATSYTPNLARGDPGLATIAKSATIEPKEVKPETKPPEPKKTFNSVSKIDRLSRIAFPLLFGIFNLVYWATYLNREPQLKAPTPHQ
GABA-A receptor; alpha-1/beta-2/gamma-2, sequence (P63138 whole entry): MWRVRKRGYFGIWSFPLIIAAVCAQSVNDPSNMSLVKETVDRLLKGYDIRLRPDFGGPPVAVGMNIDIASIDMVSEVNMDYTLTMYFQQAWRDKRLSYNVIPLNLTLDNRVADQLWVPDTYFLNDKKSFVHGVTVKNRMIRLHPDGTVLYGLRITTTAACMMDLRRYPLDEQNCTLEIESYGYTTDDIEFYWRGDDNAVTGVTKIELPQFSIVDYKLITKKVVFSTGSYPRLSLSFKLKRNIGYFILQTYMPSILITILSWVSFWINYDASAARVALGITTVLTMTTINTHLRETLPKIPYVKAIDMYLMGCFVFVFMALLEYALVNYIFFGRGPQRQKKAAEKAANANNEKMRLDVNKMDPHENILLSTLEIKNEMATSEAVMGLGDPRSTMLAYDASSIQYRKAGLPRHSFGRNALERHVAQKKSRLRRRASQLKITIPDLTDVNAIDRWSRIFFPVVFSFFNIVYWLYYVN

| IC50 [nM] | Structure (SMILES) |
| --- | --- |
| 20 | CCC(C)NC(=O)/C(=C\Nc1ccc(Cl)cc1)C(=O)c1ccccc1Cl (configuration not stated) |
| 50.1 | CCNC(=O)/C(=C\Nc1ccc(Cl)cc1)C(=O)c1ccccc1Cl |
| 39.8 | CC(C)NC(=O)/C(=C\Nc1ccc(Cl)cc1)C(=O)c1ccccc1Cl |
| 79.4 | CCC(CC)NC(=O)/C(=C\Nc1ccc(Cl)cc1)C(=O)c1ccccc1Cl |

Further lines, the compound ahead of its results:

| Structure (SMILES) | IC50 [nM] |
| --- | --- |
| CC(C)(C)NC(=O)/C(=C\Nc1ccc(Cl)cc1)C(=O)c1ccccc1Cl | 3020 |
| CC(C)C(C)NC(=O)/C(=C\Nc1ccc(Cl)cc1)C(=O)c1ccccc1Cl (configuration not stated) | 398 |
| O=C(NC1CCCC1)/C(=C\Nc1ccc(Cl)cc1)C(=O)c1ccccc1Cl | 30.2 |
| O=C(NC1CC1)/C(=C\Nc1ccc(Cl)cc1)C(=O)c1ccccc1Cl | 30.2 |
| CNC(=O)/C(=C\Nc1ccc(Cl)cc1)C(=O)c1ccccc1Cl | 158 |
| O=C(NC1CCC1)/C(=C\Nc1ccc(Cl)cc1)C(=O)c1ccccc1Cl | 7.08 |
| CCCNC(=O)/C(=C\Nc1ccc(Cl)cc1)C(=O)c1ccccc1Cl | 44.7 |
| NC(=O)/C(=C\Nc1ccc(Cl)cc1)C(=O)c1ccccc1Cl | 1700 |

Reference: ChEMBL document CHEMBL1240493, “Homology modeling and atomic level binding study of GABA(A) receptor with novel enaminone amides” (Eur J Med Chem, 2010)
